pEC50: −log10 of the molar value.

The subject of the first assay is human venous whole blood, CD8 positive population (pERK). Description: DGK human whole blood pERK assay. Type of assay: cell-based. Conditions: Homo sapiens, CD8 positive, human whole blood pERK; read-out: DGK HWB. On the procedure: Assay 11: DGK Human Whole Blood pERK Assay
Human whole blood ERK phosphorylation assay was performed with human venous whole blood obtained from healthy donors (drawn with Heparin as anti-coagulant). […] Heparinized human whole blood was added to the compound plate at 9 μL per well and incubated for one hour at 37° C. in a humidified 95%, air/5% CO2 incubator. After one hour of compound incubation, 1 μL of human anti-CD3 antibody (in-house) in the presence of cross-linking antibody goat anti-mouse IgG (4 μg/mL) was added to the well at 1 μg/mL final concentration for stimulation of pathway and additionally incubated for 15 minutes at 37° C. […] Samples analyzed using the Intellicyt® iQue Screener PLUS. The pERK activation was quantitated by the percentage of pERK positive population within CD8 positive population.
As to `CC[C@@H]1CN(c2cc(=O)n(C)c3ccc(C#N)nc23)[C@H](C)C[C@@H]1Oc1cccc(C(F)(F)F)c1` [Example 309, 8-((2R,4S,5R)-5-ethyl-2-methyl-4-(3-(trifluoromethyl)phenoxy)piperidin-1-yl)-5-methyl-6-oxo-5,6-dihydro-1,5-naphthyridine-2-carbonitrile], the pEC50 was 5.40. Take `CC[C@@H]1CN(c2cc(=O)n(C)c3ccc(C#N)nc23)[C@H](C)C[C@H]1Oc1cccc(C(F)(F)F)c1` [Example 310, 8-((2R,4R,5R)-5-ethyl-2-methyl-4-(3-(trifluoromethyl)phenoxy)piperidin-1-yl)-5-methyl-6-oxo-5,6-dihydro-1,5-naphthyridine-2-carbonitrile]: the pEC50 is 5.00. On the same count and under the same terms, in the case of `Cc1ccc(O[C@@H]2C[C@H](C)N(c3cc(=O)n(C)c4ccc(C#N)nc34)C[C@@H]2C)cc1` [Example 312, 8-((2S,4R,5S)-2,5-dimethyl-4-(p-tolyloxy)piperidin-1-yl)-5-methyl-6-oxo-5,6-dihydro-1,5-naphthyridine-2-carbonitrile] it was 5.22; in that of `C[C@H]1CN(c2cc(=O)n(C)c3ccc(C#N)nc23)[C@@H](C)C[C@H]1Oc1cccc(Cl)c1` [Example 313, 8-((2S,4R,5S)-4-(3-chlorophenoxy)-2,5-dimethylpiperidin-1-yl)-5-methyl-6-oxo-5,6-dihydro-1,5-naphthyridine-2-carbonitrile], 5.15. Take `C[C@H]1CN(c2cc(=O)n(C)c3ccc(C#N)nc23)[C@@H](C)C[C@H]1Oc1cccc(C#N)c1` [Example 314, 8-((2S,4R,5S)-4-(3-cyanophenoxy)-2,5-dimethylpiperidin-1-yl)-5-methyl-6-oxo-5,6-dihydro-1,5-naphthyridine-2-carbonitrile]: the pEC50 was 4.80. Same read-out and setting: the result for `CCO[C@H]1CN(c2cc(=O)n(C)c3ccc(C#N)nc23)CC[C@@H]1Oc1ccc(OC(C)C)cc1` [Example 347, 8-((3S,4S)-3-ethoxy-4-(4-isopropoxyphenoxy)piperidin-1-yl)-5-methyl-6-oxo-5,6-dihydro-1,5-naphthyridine-2-carbonitrile] reads 6.46; that for `CCO[C@H]1CN(c2cc(=O)n(C)c3ccc(C#N)nc23)CC[C@@H]1Oc1ccc(S(C)(=O)=O)cc1` [Example 354, 8-((3S,4S)-3-ethoxy-4-(4-(methylsulfonyl)phenoxy)piperidin-1-yl)-5-methyl-6-oxo-5,6-dihydro-1,5-naphthyridine-2-carbonitrile], 4.70.

Staying with this assay, now noted: Homo sapiens, CD8 positive, read-out: DGK HWB, human whole blood pERK.
`CC[C@@H]1CN(c2nc(=O)n(C)c3ccc(C#N)nc23)[C@H](C)C[C@H]1Oc1ccc(OC(C)C)cn1` [Example 303, 4-((2R,4R,5R)-5-ethyl-4-((5-isopropoxypyridin-2-yl)oxy)-2-methylpiperidin-1-yl)-1-methyl-2-oxo-1,2-dihydropyrido[3,2-d]pyrimidine-6-carbonitrile]: the pEC50 is 6.42. The same measure, in the same setting: in the case of `CC[C@@H]1CN(c2nc(=O)n(C)c3ccc(C#N)nc23)[C@H](C)C[C@@H]1Oc1ccc(OC(C)C)cn1` [Example 305, 4-((2R,4S,5R)-5-ethyl-4-((5-isopropoxypyridin-2-yl)oxy)-2-methylpiperidin-1-yl)-1-methyl-2-oxo-1,2-dihydropyrido[3,2-d]pyrimidine-6-carbonitrile] it was 6.14.

`CC[C@@H]1CN(c2nc(=O)n(C)c3ccc(C#N)nc23)[C@@H](C)C[C@@H]1Oc1ccc(OC(C)C)cn1` [Example 307, 4-((2S,4S,5R)-5-ethyl-4-((5-isopropoxypyridin-2-yl)oxy)-2-methylpiperidin-1-yl)-1-methyl-2-oxo-1,2-dihydropyrido[3,2-d]pyrimidine-6-carbonitrile]: the pEC50 is 6.77. Regarding `CCO[C@H]1CN(c2cc(=O)n(C)c3ccc(C#N)nc23)CC[C@@H]1Oc1ccc(OC(C)C)nn1` [Example 375, 8-((3S,4S)-3-ethoxy-4-((6-isopropoxypyridazin-3-yl)oxy)piperidin-1-yl)-5-methyl-6-oxo-5,6-dihydro-1,5-naphthyridine-2-carbonitrile], the pEC50 is 5.64.

The same assay, now with this note: human whole blood pERK; read-out: DGK HWB.
`CCO[C@H]1CN(c2cc(=O)n(C)c3ccc(C#N)nc23)CC[C@@H]1Oc1ccc(C(F)(F)F)cc1` [Example 343, 8-((3S,4S)-3-ethoxy-4-(4-(trifluoromethyl)phenoxy)piperidin-1-yl)-5-methyl-6-oxo-5,6-dihydro-1,5-naphthyridine-2-carbonitrile]: the pEC50 is 6.49. Regarding `CCO[C@H]1CN(c2cc(=O)n(C)c3ccc(C#N)nc23)CC[C@@H]1Oc1ccc(C(F)(F)F)cc1` [Example 344, 8-((3S,4S)-3-ethoxy-4-(4-(trifluoromethyl)phenoxy)piperidin-1-yl)-5-methyl-6-oxo-5,6-dihydro-1,5-naphthyridine-2-carbonitrile], the pEC50 is 4.70. The same measure, in the same setting: in the case of `CCO[C@H]1CN(c2cc(=O)n(C)c3ccc(C#N)nc23)CC[C@@H]1Oc1ccccc1C(F)(F)F` [Example 345, 8-((3S,4S)-3-ethoxy-4-(2-(trifluoromethyl)phenoxy)piperidin-1-yl)-5-methyl-6-oxo-5,6-dihydro-1,5-naphthyridine-2-carbonitrile] it was 6.09.

For the compound `CCO[C@H]1CN(c2cc(=O)n(C)c3ccc(C#N)nc23)CC[C@@H]1Oc1ccccc1C(F)(F)F` [Example 346, 8-((3S,4S)-3-ethoxy-4-(2-(trifluoromethyl)phenoxy)piperidin-1-yl)-5-methyl-6-oxo-5,6-dihydro-1,5-naphthyridine-2-carbonitrile], the pEC50 was 4.70. On the same count and under the same terms, in the case of `CCO[C@H]1CN(c2cc(=O)n(C)c3ccc(C#N)nc23)CC[C@@H]1Oc1cccc(OC(F)(F)F)c1` [Example 351, 8-((3S,4S)-3-ethoxy-4-(3-(trifluoromethoxy)phenoxy)piperidin-1-yl)-5-methyl-6-oxo-5,6-dihydro-1,5-naphthyridine-2-carbonitrile] it was 6.68; in that of `CCO[C@H]1CN(c2cc(=O)n(C)c3ccc(C#N)nc23)CC[C@@H]1Oc1cccc(OC(F)(F)F)c1` [Example 352, 8-((3S,4S)-3-ethoxy-4-(3-(trifluoromethoxy)phenoxy)piperidin-1-yl)-5-methyl-6-oxo-5,6-dihydro-1,5-naphthyridine-2-carbonitrile], 4.92; in that of `CCO[C@H]1CN(c2cc(=O)n(C)c3ccc(C#N)nc23)CC[C@@H]1Oc1ccc2oc(C)nc2c1` [Example 355, 8-((3S,4S)-3-ethoxy-4-((2-methylbenzo[d]oxazol-5-yl)oxy)piperidin-1-yl)-5-methyl-6-oxo-5,6-dihydro-1,5-naphthyridine-2-carbonitrile], 4.70. `CCO[C@H]1CN(c2cc(=O)n(C)c3ccc(C#N)nc23)CC[C@@H]1Oc1ccc2oc(C)nc2c1` [Example 356, 8-((3S,4S)-3-ethoxy-4-((2-methylbenzo[d]oxazol-5-yl)oxy)piperidin-1-yl)-5-methyl-6-oxo-5,6-dihydro-1,5-naphthyridine-2-carbonitrile]: the pEC50 was 5.41. With `CCO[C@H]1CN(c2cc(=O)n(C)c3ccc(C#N)nc23)CC[C@@H]1Oc1cc(C(F)(F)F)ccn1` [Example 365, 8-((3S,4S)-3-ethoxy-4-((4-(trifluoromethyl)pyridin-2-yl)oxy)piperidin-1-yl)-5-methyl-6-oxo-5,6-dihydro-1,5-naphthyridine-2-carbonitrile], the pEC50 is 6.22.

Turning to `CCO[C@H]1CN(c2cc(=O)n(C)c3ccc(C#N)nc23)CC[C@@H]1Oc1cc(C(F)(F)F)ccn1` [Example 366, 8-((3S,4S)-3-ethoxy-4-((4-(trifluoromethyl)pyridin-2-yl)oxy)piperidin-1-yl)-5-methyl-6-oxo-5,6-dihydro-1,5-naphthyridine-2-carbonitrile], the pEC50 is 4.70. The same measure, in the same setting: in the case of `CCO[C@H]1CN(c2cc(=O)n(C)c3ccc(C#N)nc23)CC[C@@H]1Oc1nc2ccccc2s1` [Example 373] it was 5.80.

In the case of `CCO[C@H]1CN(c2cc(=O)n(C)c3ccc(C#N)nc23)CC[C@@H]1Oc1nc2ccccc2s1` [Example 374], the pEC50 was 4.70.

The assay is the same for the next values; noted with them: read-out: DGK HWB; human whole blood pERK.
Take `CCO[C@H]1CN(c2cc(=O)n(C)c3ccc(C#N)nc23)CC[C@@H]1Oc1ccc(Cl)c(F)c1` [Example 357, 8-((3S,4S)-4-(4-chloro-3-fluorophenoxy)-3-ethoxypiperidin-1-yl)-5-methyl-6-oxo-5,6-dihydro-1,5-naphthyridine-2-carbonitrile]: the pEC50 is 4.70. Same read-out and setting: in the case of `CCO[C@H]1CN(c2cc(=O)n(C)c3ccc(C#N)nc23)CC[C@@H]1Oc1ccc(Cl)c(F)c1` [Example 358, 8-((3S,4S)-4-(4-chloro-3-fluorophenoxy)-3-ethoxypiperidin-1-yl)-5-methyl-6-oxo-5,6-dihydro-1,5-naphthyridine-2-carbonitrile] it was 5.15; in that of `CCO[C@H]1CN(c2cc(=O)n(C)c3ccc(C#N)nc23)CC[C@@H]1Oc1ccnc(C(F)(F)F)c1` [Example 359, 8-((3S,4S)-3-ethoxy-4-((2-(trifluoromethyl)pyridin-4-yl)oxy)piperidin-1-yl)-5-methyl-6-oxo-5,6-dihydro-1,5-naphthyridine-2-carbonitrile], 4.70; in that of `CCO[C@H]1CN(c2cc(=O)n(C)c3ccc(C#N)nc23)CC[C@@H]1Oc1ccnc(C(F)(F)F)c1` [Example 360, 8-((3S,4S)-3-ethoxy-4-((2-(trifluoromethyl)pyridin-4-yl)oxy)piperidin-1-yl)-5-methyl-6-oxo-5,6-dihydro-1,5-naphthyridine-2-carbonitrile], 6.15.

The values are drawn from patent US11964973B2 (priority 2019, dated 2024).
